In the supplement of paper PMC10307832:

Key:
Assay in all cases: relative viability (nuclei count vs DMSO), 5 days (fraction); higher = more cells survive
IA-LM = test system: IA-LM
Procedure, shortened: (§1)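 Five library-drug doses in √10 steps were combined with a fixed anchor-drug dose, or a single drug was given alone, by pin tool to lung cancer cell lines in 1536-well plates the day after seeding. Nuclei were stained and counted after 5 days. Relative viability is the nuclei count in treated wells over that in vehicle wells, taken as the median of duplicate plates.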

LCLC-97TM1 = test system: LCLC-97TM1
Procedure, shortened: as §1

NCI-H1355 = test system: NCI-H1355
Procedure, shortened: as §1

NCI-H1648 = test system: NCI-H1648
Procedure, shortened: as §1

NCI-H1993 = test system: NCI-H1993
Procedure, shortened: as §1

NCI-H23 = test system: NCI-H23
Procedure, shortened: as §1

NCI-H322M = test system: NCI-H322M
Procedure, shortened: as §1

NCI-H596 = test system: NCI-H596
Procedure, shortened: as §1

UMC-11 = test system: UMC-11
Procedure, shortened: as §1

NCI-H1703 = test system: NCI-H1703
Procedure, shortened: as §1

Cc1sc2c(c1C)C(c1ccc(Cl)cc1)=N[C@@H](CC(=O)OC(C)(C)C)c1nnc(C)n1-2 [JQ1] + O=C(CCCCCCC(=O)Nc1ccccc1)NO [Vorinostat] (partner 1 µM)
relative viability (IA-LM; first compound 0.04 µM): 0.925 | relative viability (IA-LM; first compound 0.1265 µM): 0.888 | relative viability (IA-LM; first compound 0.4 µM): 0.197 | relative viability (IA-LM; first compound 1.265 µM): 0.0917 | relative viability (IA-LM; first compound 4 µM): 0.0701 | relative viability (LCLC-97TM1; first compound 0.04 µM): 0.603 | relative viability (LCLC-97TM1; first compound 0.1265 µM): 0.532 | relative viability (LCLC-97TM1; first compound 0.4 µM): 0.25 | relative viability (LCLC-97TM1; first compound 1.265 µM): 0.121 | relative viability (LCLC-97TM1; first compound 4 µM): 0.0762 | relative viability (NCI-H1355; first compound 0.04 µM): 0.663 | relative viability (NCI-H1355; first compound 0.1265 µM): 0.712 | relative viability (NCI-H1355; first compound 0.4 µM): 0.541 | relative viability (NCI-H1355; first compound 1.265 µM): 0.401 | relative viability (NCI-H1355; first compound 4 µM): 0.281 | relative viability (NCI-H1648; first compound 0.04 µM): 0.392 | relative viability (NCI-H1648; first compound 0.1265 µM): 0.41 | relative viability (NCI-H1648; first compound 0.4 µM): 0.264 | relative viability (NCI-H1648; first compound 1.265 µM): 0.234 | relative viability (NCI-H1648; first compound 4 µM): 0.198 | relative viability (NCI-H1993; first compound 0.04 µM): 0.851 | relative viability (NCI-H1993; first compound 0.1265 µM): 0.785 | relative viability (NCI-H1993; first compound 0.4 µM): 0.613 | relative viability (NCI-H1993; first compound 1.265 µM): 0.388 | relative viability (NCI-H1993; first compound 4 µM): 0.362 | relative viability (NCI-H23; first compound 0.04 µM): 0.547 | relative viability (NCI-H23; first compound 0.1265 µM): 0.586 | relative viability (NCI-H23; first compound 0.4 µM): 0.44 | relative viability (NCI-H23; first compound 1.265 µM): 0.168 | relative viability (NCI-H23; first compound 4 µM): 0.141 | relative viability (NCI-H322M; first compound 0.04 µM): 0.853 | relative viability (NCI-H322M; first compound 0.1265 µM): 1.12 | relative viability (NCI-H322M; first compound 0.4 µM): 0.687 | relative viability (NCI-H322M; first compound 1.265 µM): 0.55 | relative viability (NCI-H322M; first compound 4 µM): 0.465 | relative viability (NCI-H596; first compound 0.04 µM): 0.683 | relative viability (NCI-H596; first compound 0.1265 µM): 0.643 | relative viability (NCI-H596; first compound 0.4 µM): 0.436 | relative viability (NCI-H596; first compound 1.265 µM): 0.292 | relative viability (NCI-H596; first compound 4 µM): 0.311 | relative viability (UMC-11; first compound 0.04 µM): 0.326 | relative viability (UMC-11; first compound 0.1265 µM): 0.317 | relative viability (UMC-11; first compound 0.4 µM): 0.223 | relative viability (UMC-11; first compound 1.265 µM): 0.141 | relative viability (UMC-11; first compound 4 µM): 0.165

Nc1ccn([C@@H]2O[C@H](CO)[C@@H](O)[C@@H]2O)c(=O)n1 [Cytarabine] + O=C(CCCCCCC(=O)Nc1ccccc1)NO [Vorinostat] (partner 1 µM)
relative viability (IA-LM; first compound 0.005 µM): 0.868 | relative viability (IA-LM; first compound 0.01581 µM): 1.03 | relative viability (IA-LM; first compound 0.05 µM): 1.07 | relative viability (IA-LM; first compound 0.1581 µM): 0.518 | relative viability (IA-LM; first compound 0.5 µM): 0.578 | relative viability (LCLC-97TM1; first compound 0.005 µM): 0.752 | relative viability (LCLC-97TM1; first compound 0.01581 µM): 0.562 | relative viability (LCLC-97TM1; first compound 0.05 µM): 0.166 | relative viability (LCLC-97TM1; first compound 0.1581 µM): 0.275 | relative viability (LCLC-97TM1; first compound 0.5 µM): 0.102 | relative viability (NCI-H1355; first compound 0.005 µM): 0.578 | relative viability (NCI-H1355; first compound 0.01581 µM): 0.638 | relative viability (NCI-H1355; first compound 0.05 µM): 0.64 | relative viability (NCI-H1355; first compound 0.1581 µM): 0.458 | relative viability (NCI-H1355; first compound 0.5 µM): 0.299 | relative viability (NCI-H1648; first compound 0.005 µM): 0.4 | relative viability (NCI-H1648; first compound 0.01581 µM): 0.354 | relative viability (NCI-H1648; first compound 0.05 µM): 0.556 | relative viability (NCI-H1648; first compound 0.1581 µM): 0.408 | relative viability (NCI-H1648; first compound 0.5 µM): 0.357 | relative viability (NCI-H1993; first compound 0.005 µM): 0.865 | relative viability (NCI-H1993; first compound 0.01581 µM): 0.556 | relative viability (NCI-H1993; first compound 0.05 µM): 0.751 | relative viability (NCI-H1993; first compound 0.1581 µM): 0.503 | relative viability (NCI-H1993; first compound 0.5 µM): 0.602 | relative viability (NCI-H23; first compound 0.005 µM): 0.65 | relative viability (NCI-H23; first compound 0.01581 µM): 0.511 | relative viability (NCI-H23; first compound 0.05 µM): 0.306 | relative viability (NCI-H23; first compound 0.1581 µM): 0.156 | relative viability (NCI-H23; first compound 0.5 µM): 0.122 | relative viability (NCI-H322M; first compound 0.005 µM): 0.804 | relative viability (NCI-H322M; first compound 0.01581 µM): 0.785 | relative viability (NCI-H322M; first compound 0.05 µM): 0.641 | relative viability (NCI-H322M; first compound 0.1581 µM): 0.589 | relative viability (NCI-H322M; first compound 0.5 µM): 0.426 | relative viability (NCI-H596; first compound 0.005 µM): 0.545 | relative viability (NCI-H596; first compound 0.01581 µM): 0.553 | relative viability (NCI-H596; first compound 0.05 µM): 0.502 | relative viability (NCI-H596; first compound 0.1581 µM): 0.431 | relative viability (NCI-H596; first compound 0.5 µM): 0.272 | relative viability (UMC-11; first compound 0.005 µM): 0.285 | relative viability (UMC-11; first compound 0.01581 µM): 0.308 | relative viability (UMC-11; first compound 0.05 µM): 0.258 | relative viability (UMC-11; first compound 0.1581 µM): 0.19 | relative viability (UMC-11; first compound 0.5 µM): 0.183

COc1cc2nccc(Oc3ccc(NC(=O)Nc4cc(C)on4)c(Cl)c3)c2cc1OC [Tivozanib] + NC(=O)Nc1cc(-c2cccc(F)c2)sc1C(=O)N[C@H]1CCCNC1 [AZD7762] (partner 0.2 µM)
relative viability (LCLC-97TM1; first compound 0.005 µM): 0.128 | relative viability (LCLC-97TM1; first compound 0.01581 µM): 0.274 | relative viability (LCLC-97TM1; first compound 0.05 µM): 0.343 | relative viability (LCLC-97TM1; first compound 0.1581 µM): 0.208 | relative viability (LCLC-97TM1; first compound 0.5 µM): 0.262 | relative viability (NCI-H1355; first compound 0.005 µM): 0.737 | relative viability (NCI-H1355; first compound 0.01581 µM): 0.731 | relative viability (NCI-H1355; first compound 0.05 µM): 0.799 | relative viability (NCI-H1355; first compound 0.1581 µM): 0.606 | relative viability (NCI-H1355; first compound 0.5 µM): 0.716 | relative viability (NCI-H1648; first compound 0.005 µM): 0.666 | relative viability (NCI-H1648; first compound 0.01581 µM): 0.708 | relative viability (NCI-H1648; first compound 0.05 µM): 0.693 | relative viability (NCI-H1648; first compound 0.1581 µM): 0.585 | relative viability (NCI-H1648; first compound 0.5 µM): 0.695 | relative viability (NCI-H1703; first compound 0.005 µM): 0.124 | relative viability (NCI-H1703; first compound 0.01581 µM): 0.112 | relative viability (NCI-H1703; first compound 0.05 µM): 0.139 | relative viability (NCI-H1703; first compound 0.1581 µM): 0.143 | relative viability (NCI-H1703; first compound 0.5 µM): 0.118 | relative viability (NCI-H1993; first compound 0.005 µM): 0.722 | relative viability (NCI-H1993; first compound 0.01581 µM): 0.714 | relative viability (NCI-H1993; first compound 0.05 µM): 0.968 | relative viability (NCI-H1993; first compound 0.1581 µM): 0.631 | relative viability (NCI-H1993; first compound 0.5 µM): 0.664 | relative viability (NCI-H23; first compound 0.005 µM): 0.185 | relative viability (NCI-H23; first compound 0.01581 µM): 0.229 | relative viability (NCI-H23; first compound 0.05 µM): 0.295 | relative viability (NCI-H23; first compound 0.5 µM): 0.176 | relative viability (NCI-H322M; first compound 0.005 µM): 0.562 | relative viability (NCI-H322M; first compound 0.01581 µM): 0.767 | relative viability (NCI-H322M; first compound 0.05 µM): 0.628 | relative viability (NCI-H322M; first compound 0.1581 µM): 0.443 | relative viability (NCI-H322M; first compound 0.5 µM): 0.586 | relative viability (NCI-H596; first compound 0.005 µM): 1.03 | relative viability (NCI-H596; first compound 0.01581 µM): 1.1 | relative viability (NCI-H596; first compound 0.05 µM): 1.44 | relative viability (NCI-H596; first compound 0.5 µM): 1.06
